The test system of assay [1] is acetylcholinesterase. Kind of assay: Bi-enzyme electrode of tyrosinase and acetylcholinesterase: current response to substrate. In kind it is biochemical. To be noted: for Average sensitivity: tyrosinase/acetylcholinesterase electrode.
Assay [2] deals with T1, NEST (Homo sapiens, UniProt Q8IY17).
T1 construct: recombinant esterase domain of NTE (NEST) of the present invention comprising amino acid residues 727-1216 of NTE; histidine tag; made in house; host or cells: E. coli BL21(DE3), pET-21b vector
T1 sequence (Q8IY17 775-1264): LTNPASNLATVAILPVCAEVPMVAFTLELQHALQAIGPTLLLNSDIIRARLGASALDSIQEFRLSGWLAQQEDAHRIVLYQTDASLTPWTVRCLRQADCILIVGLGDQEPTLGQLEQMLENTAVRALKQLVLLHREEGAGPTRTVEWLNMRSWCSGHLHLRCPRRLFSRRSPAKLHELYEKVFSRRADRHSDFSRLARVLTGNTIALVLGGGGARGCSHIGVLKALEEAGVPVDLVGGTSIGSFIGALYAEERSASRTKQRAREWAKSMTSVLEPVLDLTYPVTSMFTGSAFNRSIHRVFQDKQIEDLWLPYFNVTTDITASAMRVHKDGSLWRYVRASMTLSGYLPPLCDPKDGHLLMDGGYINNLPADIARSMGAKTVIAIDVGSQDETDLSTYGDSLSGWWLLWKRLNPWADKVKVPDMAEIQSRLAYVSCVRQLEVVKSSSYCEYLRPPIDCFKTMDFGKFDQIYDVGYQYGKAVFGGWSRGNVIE
The experiment in a line: NEST biosensor: amperometric response to phenyl valerate. As to conditions: for Average sensitivity: tyrosinase/NEST electrode. It is filed as biochemical.

Assay [3] deals with butyrylcholinesterase. The experiment in a line: Bi-enzyme electrode of tyrosinase and butyrylcholinesterase: current response to substrate. It is filed as biochemical.
The test system of assay [4] is tyrosinase. In kind it is biochemical. As to conditions: for Average sensitivity (control experiments): PLL-Tyr bilayers without an esterase layer.
The target of assay [5] is NEST (recombinant esterase domain of NTE) (Homo sapiens, UniProt Q8IY17). In kind it is biochemical.
For assay [6], the target named is tyrosinase (Agaricus bisporus, UniProt C7FF04). As to conditions: read-out: apparent Michaelis constant Km^app; cited from earlier work.
Chain of tyrosinase (Agaricus bisporus, UniProt C7FF04) (C7FF04 1-392): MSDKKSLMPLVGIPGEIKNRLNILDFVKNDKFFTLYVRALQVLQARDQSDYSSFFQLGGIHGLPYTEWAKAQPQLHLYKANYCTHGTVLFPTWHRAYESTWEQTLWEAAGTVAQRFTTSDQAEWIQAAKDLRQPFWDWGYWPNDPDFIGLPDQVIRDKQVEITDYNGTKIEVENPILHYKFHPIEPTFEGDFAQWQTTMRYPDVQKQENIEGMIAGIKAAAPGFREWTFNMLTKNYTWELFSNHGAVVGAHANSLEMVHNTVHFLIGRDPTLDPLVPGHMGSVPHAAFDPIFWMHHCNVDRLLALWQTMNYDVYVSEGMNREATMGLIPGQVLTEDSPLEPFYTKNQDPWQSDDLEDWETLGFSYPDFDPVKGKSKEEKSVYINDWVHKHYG
Assay [7] relates to tyrosinase. In kind it is biochemical. To be noted: NEST biosensor, 0.1 M phosphate buffer pH 7.0, −0.1 V.
For assay [8], the system named is Alkaline phosphatase. Kind of assay: Bi-enzyme electrode of tyrosinase and alkaline phosphatase: current response to substrate. It is filed as biochemical. As to conditions: Table 1-2 lower part.

Values joined by “and” are separate entries in the source; they are usually repeats but may differ in a detail not shown here. Equal entries are not always repeated.

Turning to `CCCCC(=O)Oc1ccccc1` [Phenyl valerate, phenyl valerate], the “rise in current with substrate” value in assay [1] (used as substrate instead of phenyl acetate) is reported as “no significant rise in current”. The “concentration at which response reached saturation” value in assay [2] (0.1 M phosphate buffer, pH 7.0, −0.1 V vs Ag/AgCl) is given as “approximately 30 μM”. For the same compound, the Average sensitivity is recorded as 88 ± 6 nAμM^−1cm^−2 in assay [2] (Table 1-2 lower part), 87 ± 8 nAμM^−1cm^−2 in assay [2] (Table 1-2 upper part), 70 ± 5 nAμM^−1cm^−2 in assay [3] (Table 1-2 lower part) and 25 ± 10 nAμM^−1cm^−2 in assay [3] (Table 1-2 upper part). Besides, the mean current result in assay [2] (phenyl valerate 4 μM, n=10 electrodes) is reported as “approximately 348 nA cm^−2”. In assay [2] (signal-to-noise ratio of three), the limit of detection worked out at 0.5 µM. Further, the “Average sensitivity (control experiments)” value in assay [4] was 0.5 nAμM^−1cm^−2 and 0.3 nAμM^−1cm^−2. Also, in assay [4] (electrode with poly-L-lysine and tyrosinase bilayers without NEST), the “rise in steady state current on addition of substrate” value is “relatively very small rise in steady state current”.
Take `CC(=O)Oc1ccccc1` [Phenyl acetate, phenyl acetate]: the figures for the Average sensitivity in assay [1] (Table 1-2 lower part) and in assay [1] (Table 1-2 upper part) were 180 ± 8 nAμM^−1cm^−2 and 180 ± 25 nAμM^−1cm^−2, respectively. Moreover, the “Average sensitivity (control experiments)” value in assay [4] was determined as 0.4 nAμM^−1cm^−2.
For the compound `O=S(=O)(F)Cc1ccccc1` [PMSF, phenylmethylsulfonyl fluoride], the “drop in current after addition of NEST inhibitor (dose dependence)” value in assay [5] was “dose-dependent response”.
In general, Km refers to the substrate concentration at which the rate is half of its maximum. Regarding `Oc1ccccc1O` [catechol], the Km in assay [6] is around 220 µM. This compound also had a sensitivity in assay [7] of 2.5±0.1 μAμM^−1 cm^−2.
For the compound `O=P(O)(O)Oc1ccccc1` [Phenyl phosphate], the “Average sensitivity (control experiments)” value in assay [4] is given as 0.3 nAμM^−1cm^−2. For the same compound, the Average sensitivity in assay [8] is listed as 236 ± 10 nAμM^−1cm^−2.
With `Oc1ccccc1` [phenol], the Km in assay [6] is around 250 µM. The Average sensitivity in assay [7] is on record as around 410±30 nAμM^−1 cm^−2.

The values are drawn from US8623196B2 (priority 2007, dated 2014).
